# Measurements as given in patent EP0908457B1, “3-(1,2-benzisothiazol- and isoxazol-5-Y1)-2,4(1H,3H)-pyrimidinedione or thione and 3-(1,2-benzisothiazol- and isoxazol-5-y1)-4(3H)-pyrimidinone or thione herbicidal agents” (BASF AKTIENGESELLSCHAFT, priority 1997, dated 1999).
# What was measured:
# [1] = system: Cyperus serotinus, Rottb.; assay: Preemergence weed control under flooded paddy conditions, CYPSE (Flatsedge); format: in vivo; details: for herbicidal effect rating, CYPSE / CYPSE herbicidal effect rating / CYPSE herbicidal rating: rated three to four weeks after treatment; for CYPSE: herbicidal effect rating 0-9, three to four weeks after treatment; as to herbicidal effect rating, CYPSE: meaning of each grade not given here
# [2] = system: Echinochloa oryzoides (Ard.) Fritsch.; assay: Preemergence weed control under flooded paddy conditions, ECHORC (Watergrass (Calif.)); format: in vivo; details: flooded paddy; for herbicidal effect rating, ECHORC / ECHORC herbicidal effect rating / ECHORC herbicidal rating: rated three to four weeks after treatment; for ECHORC: herbicidal effect rating 0-9, three to four weeks after treatment; as to herbicidal effect rating, ECHORC: meaning of each grade not given here
# Sagittaria pygmaea, L. = assay: Preemergence weed control under flooded paddy conditions, SAGPY (Arrowhead (Pygmaea)); format: in vivo; details: flooded paddy; for herbicidal effect rating, SAGPY / SAGPY herbicidal effect rating / SAGPY herbicidal rating: rated three to four weeks after treatment; for SAGPY: herbicidal effect rating 0-9, three to four weeks after treatment; as to herbicidal effect rating, SAGPY: meaning of each grade not given here
# [3] = system: Monochoria vaginalis, Presl.; assay: Preemergence weed control under flooded paddy conditions, MOOVA (Monochoria); format: in vivo; details: flooded paddy; for herbicidal effect rating, MOOVA / MOOVA herbicidal effect rating / MOOVA herbicidal rating: rated three to four weeks after treatment; for MOOVA: herbicidal effect rating 0-9, three to four weeks after treatment; as to herbicidal effect rating, MOOVA: meaning of each grade not given here
# Cyperus iria = assay: Preemergence weed control under flooded paddy conditions, CYPIR (Rice Flatsedge); format: in vivo; details: flooded paddy; for herbicidal effect rating, CYPIR / CYPIR herbicidal effect rating / CYPIR herbicidal rating: rated three to four weeks after treatment; for CYPIR: herbicidal effect rating 0-9, three to four weeks after treatment; as to herbicidal effect rating, CYPIR: meaning of each grade not given here
# [4] = system: Oryza sativa, (L.) Tebonnet; assay: Rice tolerance to post-transplant applications under flooded paddy conditions (Example 187), ORYSAT (Rice, Tebonnet); details: for herbicidal effect rating ORYSAT / ORYSAT herbicidal effect rating / ORYSAT herbicidal rating (rice tolerance): rated three to four weeks after treatment; for ORYSAT: herbicidal effect rating 0-9, three to four weeks after treatment; as to herbicidal effect rating ORYSAT: meaning of each grade not given here
# [5] = Rate 0.0320 kg/ha, preemergence
# [6] = Rate 0.0620 kg/ha, preemergence
# [7] = Rate 0.1250 kg/ha, preemergence
# [8] = Rate 0.2500 kg/ha, preemergence
# [9] = Rate 0.0320 kg/ha, preemergence weeds
# [10] = Rate 0.0620 kg/ha, preemergence weeds
# [11] = Rate 0.1250 kg/ha, preemergence weeds
# [12] = Rate 0.2500 kg/ha, preemergence weeds
# [13] = Rate 0.5000 kg/ha, preemergence
# [14] = 0.0320 kg/ha, preemergence weeds
# [15] = 0.0620 kg/ha, preemergence weeds
# [16] = 0.1250 kg/ha, preemergence weeds
# [17] = 0.2500 kg/ha, preemergence weeds
structure (smiles),measurement,setting,value
"CCS(=O)(=O)NC(=O)c1nsc2ccc(-n3c(=O)cc(C(F)(F)F)n(C)c3=O)cc12 [Example 383, 1,2-Benzisothiazole-3-carboxamide, 5-[3,6-dihydro-3-methyl-2,6-dioxo-4-(trifluoromethyl)-1(2H)-pyrimidinyl]-N-(ethylsulfonyl)-]","herbicidal effect rating, CYPSE",[1]; [5],4.5
same,"herbicidal effect rating, CYPSE",[1]; [6],5.5
same,"herbicidal effect rating, CYPSE",[1]; [7],7.5
same,"herbicidal effect rating, CYPSE",[1]; [8],9.0
same,"herbicidal effect rating, ECHORC",[2]; [5],4.0
same,"herbicidal effect rating, ECHORC",[2]; [6],6.5
same,"herbicidal effect rating, ECHORC",[2]; [7],7.5
same,"herbicidal effect rating, ECHORC",[2]; [8],8.0
same,"herbicidal effect rating, SAGPY","Sagittaria pygmaea, L.; [5]",3.0
same,"herbicidal effect rating, SAGPY","Sagittaria pygmaea, L.; [6]",7.5
same,"herbicidal effect rating, SAGPY","Sagittaria pygmaea, L.; [7]",9.0
same,"herbicidal effect rating, SAGPY","Sagittaria pygmaea, L.; [8]",9.0
same,"herbicidal effect rating, MOOVA",[3]; [5],9.0
same,"herbicidal effect rating, MOOVA",[3]; [6],9.0
same,"herbicidal effect rating, MOOVA",[3]; [7],9.0
same,"herbicidal effect rating, MOOVA",[3]; [8],9.0
same,"herbicidal effect rating, CYPIR",Cyperus iria; [5],2.5
same,"herbicidal effect rating, CYPIR",Cyperus iria; [6],7.0
same,"herbicidal effect rating, CYPIR",Cyperus iria; [7],7.0
same,"herbicidal effect rating, CYPIR",Cyperus iria; [8],8.0
same,herbicidal effect rating ORYSAT,[4]; Rate 0.0320 kg/ha,3.5
same,herbicidal effect rating ORYSAT,[4]; Rate 0.0620 kg/ha,4.5
same,herbicidal effect rating ORYSAT,[4]; Rate 0.1250 kg/ha,6.0
same,herbicidal effect rating ORYSAT,[4]; Rate 0.2500 kg/ha,6.5
"CC(Oc1ccccc1-c1nsc2ccc(-n3c(=O)cc(C(F)(F)F)n(C)c3=O)cc12)C(=O)O (stereo not shown) [Example 314, Propionic acid, 2-{o-{5-[3,6-dihydro-3-methyl-2,6-dioxo-4-(trifluoromethyl)-1(2H)-pyrimidinyl]-1,2-benzisothiazol-3-yl}phenoxy}-]","herbicidal effect rating, CYPSE",[1]; [9],0.0
same,"herbicidal effect rating, CYPSE",[1]; [10],0.0
same,"herbicidal effect rating, CYPSE",[1]; [11],0.0
same,"herbicidal effect rating, CYPSE",[1]; [12],0.0
same,"herbicidal effect rating, ECHORC",[2]; [9],5.0
same,"herbicidal effect rating, ECHORC",[2]; [10],5.0
same,"herbicidal effect rating, ECHORC",[2]; [11],9.0
same,"herbicidal effect rating, ECHORC",[2]; [12],9.0
same,"herbicidal effect rating, SAGPY","Sagittaria pygmaea, L.; [9]",0.0
same,"herbicidal effect rating, SAGPY","Sagittaria pygmaea, L.; [10]",0.0
same,"herbicidal effect rating, SAGPY","Sagittaria pygmaea, L.; [11]",0.0
same,"herbicidal effect rating, SAGPY","Sagittaria pygmaea, L.; [12]",0.0
same,"herbicidal effect rating, MOOVA",[3]; [9],9.0
same,"herbicidal effect rating, MOOVA",[3]; [10],9.0
same,"herbicidal effect rating, MOOVA",[3]; [11],9.0
same,"herbicidal effect rating, MOOVA",[3]; [12],9.0
same,"herbicidal effect rating, CYPIR",Cyperus iria; [9],9.0
same,"herbicidal effect rating, CYPIR",Cyperus iria; [10],9.0
same,"herbicidal effect rating, CYPIR",Cyperus iria; [11],9.0
same,"herbicidal effect rating, CYPIR",Cyperus iria; [12],9.0
same,herbicidal effect rating ORYSAT,[4]; Rate 0.0320 kg/ha,3.0
same,herbicidal effect rating ORYSAT,[4]; Rate 0.0620 kg/ha,3.0
same,herbicidal effect rating ORYSAT,[4]; Rate 0.1250 kg/ha,4.0
same,herbicidal effect rating ORYSAT,[4]; Rate 0.2500 kg/ha,5.0
"Cc1ccc(OCC(=O)NS(=O)(=O)c2c(C)noc2C)c(-c2nsc3ccc(-n4c(=O)cc(C(F)(F)F)n(C)c4=O)cc23)c1 [Example 270, Acetamide, 2-{{2-{5-[3,6-dihydro-3-methyl-2,6-dioxo-4-(trifluoromethyl)-1(2H)-pyrimidinyl]-1,2-benzisothiazol-3-yl}-p-tolyl}oxy}-N-[(3,5-dimethylisoxazol-4-yl)sulfonyl]-]",CYPSE herbicidal effect rating,[1]; [5],0.0
same,CYPSE herbicidal effect rating,[1]; [6],0.0
same,CYPSE herbicidal effect rating,[1]; [7],7.0
same,CYPSE herbicidal effect rating,[1]; [8],9.0
same,CYPSE herbicidal effect rating,[1]; [13],3.0
same,ECHORC herbicidal effect rating,[2]; [5],1.3
same,ECHORC herbicidal effect rating,[2]; [6],2.7
same,ECHORC herbicidal effect rating,[2]; [7],4.3
same,ECHORC herbicidal effect rating,[2]; [8],9.0
same,ECHORC herbicidal effect rating,[2]; [13],9.0
same,SAGPY herbicidal effect rating,"Sagittaria pygmaea, L.; [5]",0.0
same,SAGPY herbicidal effect rating,"Sagittaria pygmaea, L.; [6]",0.0
same,SAGPY herbicidal effect rating,"Sagittaria pygmaea, L.; [7]",0.0
same,SAGPY herbicidal effect rating,"Sagittaria pygmaea, L.; [8]",0.0
same,SAGPY herbicidal effect rating,"Sagittaria pygmaea, L.; [13]",5.0
same,MOOVA herbicidal effect rating,[3]; [5],9.0
same,MOOVA herbicidal effect rating,[3]; [6],9.0
same,MOOVA herbicidal effect rating,[3]; [7],9.0
same,MOOVA herbicidal effect rating,[3]; [8],9.0
same,MOOVA herbicidal effect rating,[3]; [13],9.0
same,CYPIR herbicidal effect rating,Cyperus iria; [5],8.0
same,CYPIR herbicidal effect rating,Cyperus iria; [6],9.0
same,CYPIR herbicidal effect rating,Cyperus iria; [7],9.0
same,CYPIR herbicidal effect rating,Cyperus iria; [8],9.0
same,CYPIR herbicidal effect rating,Cyperus iria; [13],9.0
same,ORYSAT herbicidal effect rating,[4]; Rate 0.0320 kg/ha,4.0
same,ORYSAT herbicidal effect rating,[4]; Rate 0.0620 kg/ha,4.0
same,ORYSAT herbicidal effect rating,[4]; Rate 0.1250 kg/ha,7.0
same,ORYSAT herbicidal effect rating,[4]; Rate 0.2500 kg/ha,8.0
same,ORYSAT herbicidal effect rating,[4]; Rate 0.5000 kg/ha,2.0
"COC(=O)COc1cc(Cl)c(C)cc1-c1nsc2ccc(-n3c(=O)cc(C(F)(F)F)n(C)c3=O)cc12 [Example 493, Acetic acid, {{5-chloro-2-{5-[3,6-dihydro-3-methyl-2,6-dioxo-4-(trifluoromethyl)-1(2H)-pyrimidinyl]-1,2-benzisothiazol-3-yl}-p-tolyl}oxy}-, methyl ester]",CYPSE herbicidal rating,"[1]; 0.1250 kg/ha, preemergence",9.0
same,CYPSE herbicidal rating,"[1]; 0.2500 kg/ha, preemergence",9.0
same,ECHORC herbicidal rating,"[2]; 0.0320 kg/ha, preemergence",4.0
same,ECHORC herbicidal rating,"[2]; 0.0620 kg/ha, preemergence",5.0
same,ECHORC herbicidal rating,"[2]; 0.1250 kg/ha, preemergence",9.0
same,ECHORC herbicidal rating,"[2]; 0.2500 kg/ha, preemergence",9.0
same,SAGPY herbicidal rating,"Sagittaria pygmaea, L.; 0.0320 kg/ha, preemergence",0.0
same,SAGPY herbicidal rating,"Sagittaria pygmaea, L.; 0.0620 kg/ha, preemergence",0.0
same,SAGPY herbicidal rating,"Sagittaria pygmaea, L.; 0.1250 kg/ha, preemergence",0.0
same,SAGPY herbicidal rating,"Sagittaria pygmaea, L.; 0.2500 kg/ha, preemergence",3.0
same,MOOVA herbicidal rating,"[3]; 0.0320 kg/ha, preemergence",5.0
same,MOOVA herbicidal rating,"[3]; 0.0620 kg/ha, preemergence",7.0
same,MOOVA herbicidal rating,"[3]; 0.1250 kg/ha, preemergence",7.0
same,MOOVA herbicidal rating,"[3]; 0.2500 kg/ha, preemergence",9.0
same,CYPIR herbicidal rating,"Cyperus iria; 0.0320 kg/ha, preemergence",4.0
same,CYPIR herbicidal rating,"Cyperus iria; 0.0620 kg/ha, preemergence",6.0
same,CYPIR herbicidal rating,"Cyperus iria; 0.1250 kg/ha, preemergence",7.0
same,CYPIR herbicidal rating,"Cyperus iria; 0.2500 kg/ha, preemergence",9.0
same,ORYSAT herbicidal rating (rice tolerance),[4]; 0.0320 kg/ha,2.0
same,ORYSAT herbicidal rating (rice tolerance),[4]; 0.0620 kg/ha,2.0
same,ORYSAT herbicidal rating (rice tolerance),[4]; 0.1250 kg/ha,3.0
same,ORYSAT herbicidal rating (rice tolerance),[4]; 0.2500 kg/ha,3.0
"Cn1c(C(F)(F)F)cc(=O)n(-c2ccc3snc(COC4CCCCO4)c3c2)c1=O (stereo not shown) [Example 456, 2,4(1H,3H)-Pyrimidinedione, 1-methyl-3-{3-{[(tetrahydro-2H-pyran-2-yl)oxy]methyl}-1,2-benzisothiazol-5-yl}-6-(trifluoromethyl)-]",CYPSE,[1]; [14],0.0
same,CYPSE,[1]; [15],0.0
same,CYPSE,[1]; [16],2.0
same,CYPSE,[1]; [17],4.0
same,ECHORC,[2]; [14],4.0
same,ECHORC,[2]; [15],6.0
same,ECHORC,[2]; [16],7.0
same,ECHORC,[2]; [17],9.0
same,SAGPY,"Sagittaria pygmaea, L.; [14]",0.0
same,SAGPY,"Sagittaria pygmaea, L.; [15]",0.0
same,SAGPY,"Sagittaria pygmaea, L.; [16]",2.0
same,SAGPY,"Sagittaria pygmaea, L.; [17]",4.0
same,MOOVA,[3]; [14],7.0
same,MOOVA,[3]; [15],9.0
same,MOOVA,[3]; [16],9.0
same,MOOVA,[3]; [17],9.0
same,CYPIR,Cyperus iria; [14],0.0
same,CYPIR,Cyperus iria; [15],4.0
same,CYPIR,Cyperus iria; [16],6.0
same,CYPIR,Cyperus iria; [17],6.0
same,ORYSAT,[4]; 0.0320 kg/ha,7.0
same,ORYSAT,[4]; 0.0620 kg/ha,8.0
same,ORYSAT,[4]; 0.1250 kg/ha,8.0
same,ORYSAT,[4]; 0.2500 kg/ha,9.0
"Cn1c(C(F)(F)F)cc(=O)n(-c2ccc3snc(C(=O)NCC(=O)O)c3c2)c1=O [Example 579, Glycine, N-{{5-[3,6-dihydro-3-methyl-2,6-dioxo-4-(trifluoromethyl)-1(2H)-pyrimidinyl]-1,2-benzisothiazol-3-yl}carbonyl}-]","herbicidal effect rating, CYPSE",[1]; [5],0.0
same,"herbicidal effect rating, CYPSE",[1]; [6],0.0
same,"herbicidal effect rating, CYPSE",[1]; [7],0.0
same,"herbicidal effect rating, CYPSE",[1]; [8],0.0
same,"herbicidal effect rating, ECHORC",[2]; [5],2.0
same,"herbicidal effect rating, ECHORC",[2]; [6],4.0
same,"herbicidal effect rating, ECHORC",[2]; [7],4.0
same,"herbicidal effect rating, ECHORC",[2]; [8],5.0
same,"herbicidal effect rating, SAGPY","Sagittaria pygmaea, L.; [5]",0.0
same,"herbicidal effect rating, SAGPY","Sagittaria pygmaea, L.; [6]",0.0
same,"herbicidal effect rating, SAGPY","Sagittaria pygmaea, L.; [7]",0.0
same,"herbicidal effect rating, SAGPY","Sagittaria pygmaea, L.; [8]",2.0
same,"herbicidal effect rating, MOOVA",[3]; [5],6.0
same,"herbicidal effect rating, MOOVA",[3]; [6],7.0
same,"herbicidal effect rating, MOOVA",[3]; [7],7.0
same,"herbicidal effect rating, MOOVA",[3]; [8],9.0
same,"herbicidal effect rating, CYPIR",Cyperus iria; [5],0.0
same,"herbicidal effect rating, CYPIR",Cyperus iria; [6],0.0
same,"herbicidal effect rating, CYPIR",Cyperus iria; [7],4.0
same,"herbicidal effect rating, CYPIR",Cyperus iria; [8],6.0
same,herbicidal effect rating ORYSAT,[4]; Rate 0.0320 kg/ha,0.0
same,herbicidal effect rating ORYSAT,[4]; Rate 0.0620 kg/ha,2.0
same,herbicidal effect rating ORYSAT,[4]; Rate 0.1250 kg/ha,3.0
same,herbicidal effect rating ORYSAT,[4]; Rate 0.2500 kg/ha,3.0
